One compound from patent publication US20200237901A1 (priority 2016, published 2020) can be followed below.

For data set [1], the system named is murine hepatitis coronavirus A59 strain (MHV-A59). The format is cell-based.
The conditions of data set [2]: female, Balb/c, mouse, in vivo, ip.
Data set [3] deals with Ectromelia Virus Moscow strain (ECTV-MOS strain). Details: species or system Balb/c mice. Particulars: mouse, in vivo, ip.
The test system of data set [4] is Enterovirus 71 Hn2 strain (EV71-Hn2). The format is cell-based.

Each structure is given as a SMILES string. “And” between values parts separate entries of the source, which are not always exact repeats. Equal values may be shown once.

With `Nc1ccn(C[C@@H](CO)OCP(=O)(O)O)c(=O)n1` [Cidofovir], the “effect on the titers of coronavirus (MHV)” value in data set [1] is “no effects”. Besides, in data set [2], the “Case-Fatality Rate (%)” value amounted to 0%, the “Death Number” value came to 0, the “Survival Number” value was found to be 15 and the “Survival Rate (%)” value was 100%. In data set [3], the “Case-Fatality Rate (%)” value is 6.67% and 13.33%; the “Death Number” value is 1 and 2; the “Survival Number” value is 14 and 13; the “Survival Rate (%)” value is 86.67% and 93.33%. Further, the “effect on the titers of enterovirus (EV71)” value in data set [4] is listed as “no effects”.
